pIC50: −log10 of the molar value. Where a name gives a salt, the structure may show the parent alone.

The target in this assay is T1, purified STEP46 enzyme (Homo sapiens, UniProt P54829).
T1 sequence (P54829 197-565 limits assumed): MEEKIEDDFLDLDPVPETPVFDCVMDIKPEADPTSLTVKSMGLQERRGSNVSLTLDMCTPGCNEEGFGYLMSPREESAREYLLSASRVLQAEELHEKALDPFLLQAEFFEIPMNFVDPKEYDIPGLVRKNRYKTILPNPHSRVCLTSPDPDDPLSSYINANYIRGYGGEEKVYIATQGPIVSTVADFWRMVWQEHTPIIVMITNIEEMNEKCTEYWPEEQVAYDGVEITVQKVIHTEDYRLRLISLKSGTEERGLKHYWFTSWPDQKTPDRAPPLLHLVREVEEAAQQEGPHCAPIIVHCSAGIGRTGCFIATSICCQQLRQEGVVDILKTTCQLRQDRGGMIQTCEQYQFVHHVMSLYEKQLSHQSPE
In words: STEP46 biochemical assay (DiFMUP fluorescence phosphatase assay). The following applies: DiFMUP 10 μM, read-out: STEP IC50. An outline of the steps: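 Purified human STEP46 preincubated 30 min at room temperature with compounds in Hepes/DTT/Brij35 buffer (2% DMSO final), then reacted with 10 μM DiFMUP for 90 min at 27°C; fluorescence read at 360/460 nm. IC50 from four-parameter fit; activation shown as negative % inhibition at 25, 50, 100 uM.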
Consider `COc1ccc2nc(-c3cccnc3)nc(Nc3ccc(F)cn3)c2c1` [Compound 24], for which the pIC50 was 5.00 to 6.00. Turning to `CNc1nc(-c2cnccn2)nc2cc(-c3ccc(F)cc3)ccc12` [Compound 393], the pIC50 was 5.00 to 6.00. Regarding `CNc1nc(-c2ccc(C)nc2)nc2cc(-c3cc(F)ccc3F)ccc12` [Compound 161], the negative-log IC50 (pIC50) was 5.00 to 6.00. The value for `CNc1nc(-c2cncc(OC)c2)nc2cc(-c3cc(F)ccc3F)ccc12` [Compound 162] was 5.00 to 6.00; that for `Fc1ccc(-c2ccc3nc(-c4cccnc4)nc(N4CCc5cccnc54)c3c2)cc1` [Compound 443] was 5.00 to 6.00; that for `Cc1ccc2c(c1)CCN2c1nc(-c2cccnc2)nc2ccc(-c3cc(F)cc(F)c3)cc12` [Compound 80] was below 5.00.

Consider `CNc1nc(-c2cccnc2)nc2ccc(-c3cc(OC(F)(F)F)ccc3F)cc12` [Compound 263], for which the pIC50 is 5.00 to 6.00. `CCOc1ccc2nc(-c3cccnc3)nc(Nc3cncc(Cl)c3)c2c1` [Compound 69]: the pIC50 is above 6.00. For `c1ccc(CNc2nc(-c3cccnc3)nc3ccc(-c4ccoc4)cc23)nc1` [Compound 602], the pIC50 was 5.00 to 6.00. As for `CNc1nc(-c2cccnc2)nc2c(F)c(-c3csc4ccccc34)ccc12` [Compound 537], the figure is 5.00 to 6.00; as for `CNc1nc(-c2cnccn2)nc2c(F)c(-c3ccc(F)cc3F)ccc12` [Compound 995], 5.00 to 6.00. In the case of `Fc1ccc(-c2ccc3nc(-c4cccnc4)nc(Nc4ccc(F)cn4)c3c2)cc1` [Compound 436], the pIC50 was 5.00 to 6.00. On to `CNc1nc(-c2cccnc2)nc2c(-c3cccc(C#N)c3)cccc12` [Compound 272], for which the pIC50 is above 6.00. Take `Cc1ccc2c(c1)N(c1nc(-c3cccnc3)nc3ccc(-c4cccc(F)c4F)cc13)CC2` [Compound 446]: the negative-log IC50 (pIC50) is 5.00 to 6.00. With `CNc1nc(-c2cccnc2)nc2c(F)c(-c3ccoc3)ccc12` [Compound 530], the negative logarithm of the IC50 (pIC50) is 5.00 to 6.00. For `[2H]C([2H])([2H])Nc1nc(-c2cccnc2)nc2cc(-c3cc(F)ccc3F)ccc12` [Compound 390], the pIC50 is 5.00 to 6.00. As for `c1ccc(CNc2nc(-c3cccnc3)nc3ccc(-c4ccco4)cc23)nc1` [Compound 348], the figure is 5.00 to 6.00. With `Fc1ccc(-c2ccc3nc(-c4cccnc4)nc(NCc4ccccn4)c3c2)cc1` [Compound 374], the negative-log IC50 (pIC50) was 5.00 to 6.00.

With `Cc1ccc(Nc2nc(-c3cccnc3)nc3ccc(-c4ccc(F)cc4)cc23)nc1` [Compound 441], the pIC50 was 5.00 to 6.00.

In the case of `CNc1nc(-c2cccnc2)nc2ccc(-c3ccc(F)cc3C(F)(F)F)cc12` [Compound 248], the pIC50 is below 5.00. As for `CNc1nc(-c2cccnc2)nc2cc(-c3ccc(F)cc3C)ccc12` [Compound 321], the pIC50 is 5.00 to 6.00.

Turning to `CCCOc1ccc2nc(-c3cccnc3)nc(N3CCc4cc(Cl)ccc43)c2c1` [Compound 137], the pIC50 is above 6.00. Regarding `CCOc1ccc2nc(-c3cccnc3)nc(Nc3ccc(C)cn3)c2c1` [Compound 56], the pIC50 was 5.00 to 6.00. As to `Fc1ccc(-c2ccc3nc(-c4cccnc4)nc(N4CCc5cc(Cl)ccc54)c3c2)cc1` [Compound 86], the pIC50 was 5.00 to 6.00. Consider `CC(Nc1nc(-c2cccnc2)nc2ccc(-c3ccc(F)cc3)cc12)c1ccccc1` (centres unmarked) [Compound 605], for which the pIC50 was 5.00 to 6.00. As for `CNc1nc(-c2cccnc2)nc2ccc(-c3ccc(F)cc3C)cc12` [Compound 247], the figure is 5.00 to 6.00. In the case of `Cc1ccc(Nc2nc(-c3cccnc3)nc3ccc(Cl)cc23)nc1` [Compound 57], the pIC50 was 5.00 to 6.00. As to `Fc1ccc(-c2ccc3c(N4CCc5cc(Cl)ccc54)nc(-c4cccnc4)nc3c2)c(F)c1` [Compound 94], the negative logarithm of the IC50 (pIC50) is 5.00 to 6.00. Regarding `Fc1cccc(-c2ccc3nc(-c4cccnc4)nc(NCc4ccccn4)c3c2)c1` [Compound 373], the negative-log IC50 (pIC50) is below 5.00. As for `Cn1ccc2cc(-c3ccc4nc(-c5cccnc5)nc(NCCc5ccccn5)c4c3)ccc21` [Compound 346], the pIC50 is above 6.00. As to `Cc1ccc2c(c1)CCN2c1nc(-c2cccnc2)nc2ccc(-c3ccc(C#N)cc3)cc12` [Compound 81], the pIC50 is 5.00 to 6.00.

In the case of `c1ccc(CCNc2nc(-c3cccnc3)nc3ccc(-c4cc5ccccc5o4)cc23)nc1` [Compound 345], the negative logarithm of the IC50 (pIC50) is 5.00 to 6.00. Take `Fc1ccc(-c2ccc3nc(-c4cccnc4)nc(N4CCc5cc(Cl)ccc54)c3c2)c(F)c1` [Compound 72]: the pIC50 is 5.00 to 6.00. With `NC(=O)C1CN(c2nc(-c3cccnc3)nc3ccc(-c4ccc(F)cc4F)cc23)C1` [Compound 419], the pIC50 was 5.00 to 6.00. As for `CNc1nc(-c2cccnc2)nc2c(F)c(-c3cccc4sccc34)ccc12` [Compound 538], the figure is 5.00 to 6.00; as for `CNc1nc(-c2cccnc2)nc2ccc(-c3cccc4c3CNC4=O)cc12` [Compound 450], 5.00 to 6.00; as for `CNc1nc(-c2cccnc2C)nc2ccc(-c3cccc(F)c3)cc12` [Compound 220], 5.00 to 6.00.

In the case of `Nc1nc(-c2cccnc2)nc2cc(-c3cc(F)c(F)c(F)c3)ccc12` [Compound 312], the negative logarithm of the IC50 (pIC50) was 5.00 to 6.00. As for `Cc1ccc2c(c1)CCN2c1nc(-c2cccnc2)nc2ccc(-c3cccc(F)c3F)cc12` [Compound 74], the figure is 5.00 to 6.00; as for `CNc1nc(-c2cccnc2)nc2c(Cl)cc(-c3cccc(F)c3F)cc12` [Compound 243], 5.00 to 6.00. As for `CC(Nc1nc(-c2cccnc2)nc2ccc(-c3cccc(F)c3F)cc12)c1ccccc1` (centres unmarked) [Compound 606], the figure is 5.00 to 6.00. Take `CNc1nc(-c2cncnc2)nc2cc(-c3cc(F)ccc3F)ccc12` [Compound 155]: the pIC50 is 5.00 to 6.00. Consider `COc1ccc2nc(-c3cccnc3)nc(N3CCc4cc(Br)ccc43)c2c1` [Compound 6], for which the pIC50 is below 5.00. `Fc1cncc(Nc2nc(-c3cccnc3)nc3ccc(Cl)cc23)c1` [Compound 48]: the pIC50 was 5.00 to 6.00.

Consider `CNc1nc(-c2cccnc2)nc2c(-c3cccc(C#N)c3)ccc(OC)c12` [Compound 489, 3—(5-methoxy-4-(methylamino)-2-(pyridin-3-yl)quinazolin-8-yl)benzonitrile dihydrochloride], for which the pIC50 is 5.00 to 6.00.

For the compound `CNc1nc(-c2cncc(F)c2)nc2cc(-c3cc(F)ccc3F)ccc12` [Compound 157], the pIC50 was 5.00 to 6.00. As for `CNc1nc(-c2cccnc2)nc2cc(C)c(-c3cccc(F)c3)cc12` [Compound 299], the figure is 5.00 to 6.00.

`CNc1nc(-c2cccnc2)nc2ccc(-c3cccc4[nH]c(=O)oc34)cc12` [Compound 475]: the negative-log IC50 (pIC50) is above 6.00.

For the compound `CNc1nc(-c2cccnc2)nc2c(OC)cc(-c3ccc(F)cc3F)cc12` [Compound 195], the pIC50 is above 6.00.

For `c1ccc(CNc2nc(-c3cccnc3)nc3ccc(-c4cccs4)cc23)nc1` [Compound 601], the pIC50 is 5.00 to 6.00. Take `CNc1nc(-c2cccnc2)nc2cc(F)c(-c3cccc(OC)c3)cc12` [Compound 590]: the pIC50 was 5.00 to 6.00. As for `Fc1ccc(-c2ccc3nc(-c4cccnc4)nc(N4CC(F)(F)C4)c3c2)c(F)c1` [Compound 415], the figure is below 5.00; as for `CNc1nc(-c2cccnc2)nc2c(F)c(-c3ccsc3)ccc12` [Compound 527], 5.00 to 6.00; as for `CNc1nc(-c2cccnc2)nc2c(C)c(-c3cc(F)cc(F)c3F)ccc12` [Compound 288], 5.00 to 6.00. For the compound `CNc1nc(-c2cccnc2)nc2c(Cl)cc(-c3ccc(F)cc3F)cc12` [Compound 244], the pIC50 was 5.00 to 6.00. The value for `CNc1nc(-c2cnccn2)nc2cc(-c3ccccc3F)ccc12` [Compound 391] was 5.00 to 6.00; that for `CNc1nc(-c2cccnc2)nc2c(F)c(-c3cccs3)ccc12` [Compound 533] was 5.00 to 6.00; that for `CNc1nc(-c2cccnc2)nc2cc(-c3ccc(F)cc3)c(F)cc12` [Compound 553] was 5.00 to 6.00. For the compound `CNc1nc(-c2cccnc2)nc2c(OC)cc(-c3ccccc3C#N)cc12` [Compound 205], the pIC50 was 5.00 to 6.00. On to `CNc1nc(-c2cccnc2)nc2c(OC)cc(-c3cc(F)cc(F)c3)cc12` [Compound 204], for which the pIC50 was 5.00 to 6.00.

In the case of `CNc1nc(-c2cccnc2)nc2cc(-c3ccco3)ccc12` [Compound 317], the negative-log IC50 (pIC50) was below 5.00. Turning to `Fc1ccc(CNc2nc(-c3cccnc3)nc3ccc(-c4cccc(F)c4F)cc23)cc1F` [Compound 361], the pIC50 was below 5.00. As for `CNc1nc(-c2cccnc2)nc2c(C)c(-c3cc(F)c(F)c(F)c3)ccc12` [Compound 289], the pIC50 is above 6.00.

For the compound `CNc1nc(-c2cccnc2)nc2ccc(-c3cccc(OC(C)C)c3)cc12` [Compound 257], the pIC50 was below 5.00.

For the compound `CNc1nc(-c2cccnc2)nc2cc(-c3ccoc3)ccc12` [Compound 318], the pIC50 was below 5.00. `CC(Nc1nc(-c2cccnc2)nc2cc(-c3cc(F)ccc3F)ccc12)c1ccccn1` (centres unmarked) [Compound 368]: the pIC50 was 5.00 to 6.00.

Turning to `CNc1nc(-c2cccnc2)nc2c(C)c(-c3ccccc3C)ccc12` [Compound 297], the pIC50 is below 5.00.

For the compound `CNc1nc(-c2cccnc2)nc2c(F)cc(-c3ccccc3C#N)cc12` [Compound 567], the pIC50 is above 6.00. Take `CCOc1cccc(-c2ccc3c(NC)nc(-c4cccnc4)nc3c2)c1` [Compound 141]: the pIC50 was 5.00 to 6.00.

Take `CNc1nc(-c2cccnc2)nc2cc(F)c(-c3ccc(F)cc3F)cc12` [Compound 196]: the pIC50 is above 6.00. Take `CNc1nc(-c2cccnc2)nc2cc(-c3cc(F)cc(OCCOC)c3)ccc12` [Compound 144]: the pIC50 was 5.00 to 6.00.

The term pIC50 denotes the IC50 on a negative log10 scale, so that one unit is a factor of ten.

The record behind these values is patent publication US20140315886A1, “QUINAZOLINES AS THERAPEUTIC COMPOUNDS AND RELATED METHODS OF USE” (OTSUKA PHARMACEUTICAL CO., LTD., priority 2011, published 2014).
